{"source": "patent US20240294544A1", "about": "“NEW SUBSTITUTED PYRIDINES AS FUNGICIDES” (BASF SE, priority 2021, published 2024)", "assay_type_in_all_cases": "cell-based", "key": {"Botrytis cinerea": {"tested_on": "Botrytis cinerea", "assay": "Example 1: activity against the grey mold Botrytis cinerea in the microtiterplate test", "conditions": "31 ppm active substance; relative to compound-free control (100%); 405 nm, 7 days after inoculation"}, "Fusarium culmorum": {"tested_on": "Fusarium culmorum", "assay": "Example 2: activity against Fusarium culmorum in the microtiterplate test", "conditions": "31 ppm active substance; relative to compound-free control (100%); 405 nm, 7 days after inoculation", "method": "The active compounds were formulated separately as a stock solution having a concentration of 10000 ppm in dimethyl sulfoxide.\nThe stock solutions were mixed according to the ratio, pipetted onto a micro titer plate (MTP) and diluted with water to the stated concentrations. A spore suspension of Fusarium culmorum in an aqueous biomalt or yeast-bactopeptone-glycerine or DOB solution was then added. The plates were placed in a water vapor-saturated chamber at a temperature of 18° C. Using an absorption photometer, the MTPs were measured at 405 nm 7 days after the inoculation.\n(§1) The measured parameters were compared to the growth of the active compound-free control variant (100%) and the fungus-free blank value to determine the relative growth in % of the pathogens in the respective active compounds."}, "Septoria tritici": {"tested_on": "Septoria tritici", "assay": "Comparative Example 1: activity against leaf blotch on wheat caused by Septoria tritici (microtiter plate)", "conditions": "at 125 ppm; relative to compound-free control (100%); 405 nm, 7 days after inoculation", "method": "The active compounds were formulated separately as a stock solution having a concentration of 10000 ppm in dimethyl sulfoxide. The stock solutions were mixed according to the ratio, pipetted onto a micro titer plate (MTP) and diluted with water to the stated concentrations. A spore suspension of Septoria tritici in an aqueous biomalt or yeast-bactopeptone-glycerine or DOB solution was then added. The plates were placed in a water vapor-saturated chamber at a temperature of 18° C. Using an absorption photometer, the MTPs were measured at 405 nm 7 days after the inoculation.\nas §1"}, "Leptosphaeria nodorum": {"tested_on": "Leptosphaeria nodorum", "assay": "Comparative Example 2: activity against wheat leaf spots caused by Leptosphaeria nodorum (microtiter plate)", "conditions": "relative to compound-free control (100%), 405 nm, 7 days after inoculation", "method": "The active compounds were formulated separately as a stock solution having a concentration of 10000 ppm in dimethyl sulfoxide. The stock solutions were mixed according to the ratio, pipetted onto a micro titer plate (MTP) and diluted with water to the stated concentrations. A spore suspension of Leptosphaeria nodorum in an aqueous biomalt or yeast-bactopeptone-glycerine or DOE solution was then added. The plates were placed in a water vapor-saturated chamber at a temperature of 18° C. Using an absorption photometer, the MTPs were measured at 405 nm 7 days after the inoculation.\nas §1"}, "[1]": {"tested_on": "Colletotrichum orbiculare", "assay": "Comparative Example 3: activity against anthracnose caused by Colletotrichum orbiculare in the microtiterplate test", "conditions": "at 2 ppm; relative to compound-free control (100%); 405 nm, 7 days after inoculation", "method": "The active compounds were formulated separately as a stock solution having a concentration of 10000 ppm in dimethyl sulfoxide. The stock solutions were mixed according to the ratio, pipetted onto a micro titer plate (MTP) and diluted with water to the stated concentrations. A spore suspension of Colletotrichum orbiculare in an aqueous bio malt solution was then added. The plates were placed in a water vapor-saturated chamber at a temperature of 18° C. Using an absorption photometer, the MTPs were measured at 405 nm 7 days after the inoculation.\nas §1"}}}
{"molecule": "Cc1cc(C2=NC(C)(C)Oc3ccccc32)cnc1C", "note": "[Ex-6]", "values": [{"measurement": "growth of the pathogen", "setting": "Botrytis cinerea", "result": 0, "unit": "%"}, {"measurement": "growth of the pathogen", "setting": "Fusarium culmorum", "result": 1, "unit": "%"}]}
{"molecule": "CC1(Cc2ccc(F)cc2)N=C(c2ccc(Cl)nc2)c2ccccc2O1", "note": "(stereo not shown) [reference compound]", "values": [{"measurement": "Growth (%) at 125 pm", "setting": "Septoria tritici", "result": 93, "unit": "%"}, {"measurement": "Growth (%) at 125 pm", "setting": "Leptosphaeria nodorum", "result": 43, "unit": "%"}, {"measurement": "Growth (%) at 2 pm", "setting": "[1]", "result": 96, "unit": "%"}]}
{"molecule": "Cc1cc(C2=NC3(CCC(C)(C)C3)Oc3ccccc32)cnc1C", "note": "(stereo not shown) [Ex-4]", "values": [{"measurement": "growth of the pathogen", "setting": "Botrytis cinerea", "result": 0, "unit": "%"}, {"measurement": "growth of the pathogen", "setting": "Fusarium culmorum", "result": 1, "unit": "%"}]}
{"molecule": "Cc1cc(C2=NC(C)(C(C)(C)C)Oc3ccccc32)cnc1C(F)F", "note": "(stereo not shown) [Ex-3]", "values": [{"measurement": "growth of the pathogen", "setting": "Botrytis cinerea", "result": 0, "unit": "%"}]}
{"molecule": "Cc1cc(C2=NC(C)(Cc3ccc(F)cc3)Oc3ccccc32)cnc1C(F)F", "note": "(stereo not shown) [Ex-58]", "values": [{"measurement": "Growth (%) at 125 pm", "setting": "Septoria tritici", "result": 73, "unit": "%"}, {"measurement": "Growth (%) at 125 pm", "setting": "Leptosphaeria nodorum", "result": 8, "unit": "%"}, {"measurement": "Growth (%) at 2 pm", "setting": "[1]", "result": 55, "unit": "%"}]}
{"molecule": "Cc1cc(C2=NC(C)(C(C)C)Oc3ccccc32)cnc1C", "note": "(stereo not shown) [Ex-5]", "values": [{"measurement": "growth of the pathogen", "setting": "Botrytis cinerea", "result": 0, "unit": "%"}]}
{"molecule": "CC1(c2ccc(Cl)cc2)N=C(c2ccc(Cl)nc2)c2ccccc2O1", "note": "(stereo not shown) [reference compound]", "values": [{"measurement": "Growth (%) at 125 pm", "setting": "Septoria tritici", "result": 69, "unit": "%"}, {"measurement": "Growth (%) at 125 pm", "setting": "Leptosphaeria nodorum", "result": 47, "unit": "%"}, {"measurement": "Growth (%) at 2 pm", "setting": "[1]", "result": 88, "unit": "%"}]}
{"molecule": "Cc1cc(C2=NC(C)(C(C)(C)C)Oc3ccccc32)cnc1C", "note": "(stereo not shown) [Ex-2]", "values": [{"measurement": "growth of the pathogen", "setting": "Botrytis cinerea", "result": 0, "unit": "%"}]}
{"molecule": "Cc1cc(C2=NC(C)(c3ccc(Cl)cc3)Oc3ccccc32)cnc1C(F)F", "note": "(stereo not shown) [Ex-51]", "values": [{"measurement": "Growth (%) at 125 pm", "setting": "Septoria tritici", "result": 46, "unit": "%"}, {"measurement": "Growth (%) at 125 pm", "setting": "Leptosphaeria nodorum", "result": 15, "unit": "%"}, {"measurement": "Growth (%) at 2 pm", "setting": "[1]", "result": 22, "unit": "%"}]}
